Measurements reported in PubChem BioAssay AID248 (DTP/NCI, 2004).
“And” between values parts separate entries of the source, which are not always exact repeats. Equal entries are not always repeated. Inconclusive results and toxic doses are left out. No stated cut-off is given here; in the data, active means T/C of 150% or more; inactive means T/C below 125%.

System: L1210 leukemia ip in BDF1 mice, survival T/C
Experiment: NCI In Vivo Anticancer Drug Screen. Data for tumor model L1210 Leukemia (intraperitoneal) in B6D2F1 (BDF1) mice
Conditions: endpoint: mean survival time, higher = longer survival
Outline: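 Transplanted-tumor mice were given test agent; controls received vehicle only. Survival readings from the two groups were divided (treated over control).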

[1] = dose: 100.0 mg/kg/injection, schedule: Q01DX001 (ip), vehicle: Klucel (hydroxypropylcellulose) (HPC)
[2] = dose: 200.0 mg/kg/injection, schedule: Q01DX001 (ip), vehicle: Klucel (hydroxypropylcellulose) (HPC)
[3] = dose: 400.0 mg/kg/injection, schedule: Q01DX001 (ip), vehicle: Klucel (hydroxypropylcellulose) (HPC)
[4] = dose: 100.0 mg/kg/injection, schedule: Q04DX003 (ip), vehicle: Klucel (hydroxypropylcellulose) (HPC)
[5] = dose: 200.0 mg/kg/injection, schedule: Q04DX003 (ip), vehicle: Klucel (hydroxypropylcellulose) (HPC)
[6] = dose: 100.0 mg/kg/injection, schedule: Q01DX009 (ip), vehicle: saline with Tween-80
[7] = dose: 100.0 mg/kg/injection, schedule: Q04DX003 (ip), vehicle: saline with Tween-80
[8] = dose: 200.0 mg/kg/injection, schedule: Q04DX003 (ip), vehicle: saline with Tween-80
[9] = dose: 400.0 mg/kg/injection, schedule: Q04DX003 (ip), vehicle: saline with Tween-80
[10] = dose: 100.0 mg/kg/injection, schedule: Q01DX009 (ip), vehicle: Klucel (hydroxypropylcellulose) (HPC)
[11] = dose: 400.0 mg/kg/injection, schedule: Q04DX003 (ip), vehicle: Klucel (hydroxypropylcellulose) (HPC)

Measured: T/C

CC1(C)C2CC3C(=CCC4C(=O)C5CC=C6C(CC7CC6C7(C)C)C5C(=O)C43)C1C2 (stereo not given)
inactive: [1] 103 % of control | [2] 93 % of control | [3] 93 % of control

COC(=O)C1CC2c3[nH]c4ccccc4c3CCN2C1 (stereo not given)
inactive: [4] 94 % of control | [5] 92 % of control

Cc1ccccc1C(C)(O)c1cnc(C)n1Cc1ccccc1 (stereo not given)
inactive: [6] 94 % of control and 98 % of control | dose: 100.0 mg/kg/injection, schedule: Q04DX002 (ip), vehicle: saline with Tween-80 97 % of control and 103 % of control | dose: 200.0 mg/kg/injection, schedule: Q01DX009 (ip), vehicle: saline with Tween-80 95 % of control and 103 % of control | dose: 200.0 mg/kg/injection, schedule: Q04DX002 (ip), vehicle: saline with Tween-80 97 % of control and 100 % of control | dose: 400.0 mg/kg/injection, schedule: Q01DX009 (ip), vehicle: saline with Tween-80 98 % of control and 100 % of control | dose: 400.0 mg/kg/injection, schedule: Q04DX002 (ip), vehicle: saline with Tween-80 95 % of control and 101 % of control

CCCCCCCCCCCCCCCCCCCCCCCC(=O)NCCc1c[nH]c2ccc(O)cc12 (tested in a mixture with another compound)
inactive: [7] 96 % of control | [8] 96 % of control | [9] 86 % of control

Oc1cccc[c]1[Hg][Cl]
inactive: dose: 1.0 mg/kg/injection, schedule: Q01DX009 (ip), vehicle: Klucel (hydroxypropylcellulose) (HPC) 98 % of control | dose: 1.0 mg/kg/injection, schedule: Q04DX003 (ip), vehicle: saline 98 % of control | dose: 3.0 mg/kg/injection, schedule: Q01DX009 (ip), vehicle: Klucel (hydroxypropylcellulose) (HPC) 89 % of control | dose: 3.0 mg/kg/injection, schedule: Q04DX003 (ip), vehicle: saline 94 % of control | dose: 6.0 mg/kg/injection, schedule: Q01DX009 (ip), vehicle: Klucel (hydroxypropylcellulose) (HPC) 94 % of control and 91 % of control

CC(C)(C)OC(=O)CC#N
inactive: dose: 75.0 mg/kg/injection, schedule: Q04DX003 (ip), vehicle: saline 97 % of control | dose: 100.0 mg/kg/injection, schedule: Q01DX001 (ip), vehicle: saline 97 % of control | dose: 150.0 mg/kg/injection, schedule: Q04DX003 (ip), vehicle: saline 94 % of control | dose: 200.0 mg/kg/injection, schedule: Q01DX001 (ip), vehicle: saline 101 % of control | dose: 300.0 mg/kg/injection, schedule: Q04DX003 (ip), vehicle: saline 100 % of control

O=C(COc1ccc(Cl)c(Cl)c1)Nc1ccc[n+](Cc2ccc([N+](=O)[O-])cc2)c1
inactive: dose: 100.0 mg/kg/injection, schedule: Q04DX003 (ip), vehicle: saline 95 % of control | dose: 200.0 mg/kg/injection, schedule: Q04DX003 (ip), vehicle: saline 95 % of control | dose: 400.0 mg/kg/injection, schedule: Q04DX003 (ip), vehicle: saline 104 % of control

BrC1C2CC3C1C3C2c1ccccc1 (stereo not given)
inactive: [10] 117 % of control | [4] 103 % of control | dose: 200.0 mg/kg/injection, schedule: Q01DX009 (ip), vehicle: Klucel (hydroxypropylcellulose) (HPC) 109 % of control | [5] 107 % of control | dose: 400.0 mg/kg/injection, schedule: Q01DX009 (ip), vehicle: Klucel (hydroxypropylcellulose) (HPC) 107 % of control | [11] 103 % of control

C=C(C)COB(OCC(=C)C)OCC(=C)C
inactive: dose: 25.0 mg/kg/injection, schedule: Q01DX009 (ip), vehicle: saline with Tween-80 100 % of control | dose: 50.0 mg/kg/injection, schedule: Q01DX009 (ip), vehicle: saline with Tween-80 105 % of control | [6] 94 % of control

O/N=C/c1nc2ccccc2[nH]1
inactive: dose: 75.0 mg/kg/injection, schedule: Q01DX001 (ip), vehicle: other 90 % of control | dose: 150.0 mg/kg/injection, schedule: Q01DX001 (ip), vehicle: other 90 % of control | dose: 300.0 mg/kg/injection, schedule: Q01DX001 (ip), vehicle: other 95 % of control

CCCNC(C)(C)C(SS)c1ccc(C(F)(F)F)cc1 (stereo not given)
inactive: dose: 12.5 mg/kg/injection, schedule: Q01DX009 (ip), vehicle: other 89 % of control | dose: 12.5 mg/kg/injection, schedule: Q04DX003 (ip), vehicle: other 94 % of control | dose: 25.0 mg/kg/injection, schedule: Q01DX009 (ip), vehicle: other 95 % of control | dose: 25.0 mg/kg/injection, schedule: Q04DX003 (ip), vehicle: other 96 % of control | dose: 50.0 mg/kg/injection, schedule: Q01DX009 (ip), vehicle: other 95 % of control | dose: 50.0 mg/kg/injection, schedule: Q04DX003 (ip), vehicle: other 89 % of control

O=C(O)CCc1ccc(-c2ccccc2)[nH]1
inactive: [1] 106 % of control | [2] 104 % of control | [3] 106 % of control

Cc1ccc(NCC(O)CN2CCN(CC(O)CNc3ccc(C)cc3)CC2)cc1 (stereo not given)
inactive: dose: 100.0 mg/kg/injection, schedule: Q01DX001 (ip), vehicle: other 106 % of control | [4] 88 % of control | dose: 200.0 mg/kg/injection, schedule: Q01DX001 (ip), vehicle: other 95 % of control | [5] 94 % of control | dose: 400.0 mg/kg/injection, schedule: Q01DX001 (ip), vehicle: other 95 % of control | [11] 91 % of control

CC1OC(=O)N(CCc2ccncc2)C1=O (stereo not given)
inactive: dose: 100.0 mg/kg/injection, schedule: Q04DX002 (ip), vehicle: saline 93 % of control | dose: 200.0 mg/kg/injection, schedule: Q04DX002 (ip), vehicle: saline 93 % of control | dose: 400.0 mg/kg/injection, schedule: Q04DX002 (ip), vehicle: saline 97 % of control

C#CC(=O)C(CC)CCCC (stereo not given)
inactive: dose: 6.25 mg/kg/injection, schedule: Q01DX009 (ip), vehicle: saline with Tween-80 115 % of control | dose: 12.5 mg/kg/injection, schedule: Q01DX009 (ip), vehicle: saline with Tween-80 117 % of control

Oc1ccc(O)c2[nH]c(-c3ccccc3)cc12
inactive: dose: 6.25 mg/kg/injection, schedule: Q04DX002 (ip), vehicle: saline with Tween-80 97 % of control | dose: 12.5 mg/kg/injection, schedule: Q04DX002 (ip), vehicle: saline with Tween-80 97 % of control

O=C1OC2CCCCC2/C1=C/OS(=O)(=O)C(F)(F)F (stereo not given)
inactive: dose: 12.5 mg/kg/injection, schedule: Q01DX009 (ip), vehicle: DMSO 105 % of control | dose: 25.0 mg/kg/injection, schedule: Q01DX009 (ip), vehicle: DMSO 103 % of control | dose: 50.0 mg/kg/injection, schedule: Q01DX009 (ip), vehicle: DMSO 110 % of control | dose: 100.0 mg/kg/injection, schedule: Q01DX009 (ip), vehicle: DMSO 110 % of control | dose: 200.0 mg/kg/injection, schedule: Q01DX009 (ip), vehicle: DMSO 117 % of control

CS(C)=O.CS(C)=O.[Cl][Sn]([Cl])([Cl])[Cl]
inactive: dose: 25.0 mg/kg/injection, schedule: Q01DX009 (ip), vehicle: Klucel (hydroxypropylcellulose) (HPC) 95 % of control | dose: 50.0 mg/kg/injection, schedule: Q01DX009 (ip), vehicle: Klucel (hydroxypropylcellulose) (HPC) 90 % of control | [10] 106 % of control | [4] 95 % of control | dose: 150.0 mg/kg/injection, schedule: Q01DX009 (ip), vehicle: Klucel (hydroxypropylcellulose) (HPC) 104 % of control

CCOc1cc(/C=N\Nc2nnc(C)n2N)c(C)cc1N(CCCl)CCCl
inactive: dose: 10.5 mg/kg/injection, schedule: Q01DX015 (ip), vehicle: carboxymethylcellulose (CMC) 119 % of control | dose: 18.0 mg/kg/injection, schedule: Q01DX015 (ip), vehicle: carboxymethylcellulose (CMC) 109 % of control | dose: 44.0 mg/kg/injection, schedule: Q01DX001 (ip), vehicle: carboxymethylcellulose (CMC) 110 % of control | dose: 50.0 mg/kg/injection, schedule: Q01DX001 (ip), vehicle: carboxymethylcellulose (CMC) 120 % of control | dose: 67.0 mg/kg/injection, schedule: Q01DX001 (ip), vehicle: carboxymethylcellulose (CMC) 110 % of control and 116 % of control | dose: 100.0 mg/kg/injection, schedule: Q01DX001 (ip), vehicle: carboxymethylcellulose (CMC) 111 % of control and 124 % of control | dose: 150.0 mg/kg/injection, schedule: Q01DX001 (ip), vehicle: carboxymethylcellulose (CMC) 105 % of control and 90 % of control | dose: 200.0 mg/kg/injection, schedule: Q01DX001 (ip), vehicle: carboxymethylcellulose (CMC) 105 % of control

CC(=O)OC1CCC2C3CCc4cc(OC(=S)N(C)C)ccc4C3CCC12C (stereo not given)
inactive: [7] 101 % of control | [8] 101 % of control | [9] 110 % of control

CCCCCCCCCCCCNc1c(OCC)c(=O)c1=O
inactive: [4] 88 % of control | [5] 91 % of control | [11] 93 % of control
